Four compounds from patent US20040167164A1, “Compositions and methods for treating particular chemical addictions and mental illnesses” (priority 1998, published 2004) can be followed below.

Where “and” joins values, the source holds several entries; their conditions need not be identical. Equal values may be shown once. Entries after “also recorded” stand apart in the source; their conditions may differ.

Data set [1] is classed as in vivo. The following applies: with Polycitra orally, urine pH about 7.8 to 8. From the text: Once known that AMPT produced crystalluria, which prevented its use in humans, the present inventor conducted research to find a solution to the crystalluria problem. Specifically, this research was directed to provide a composition containing AMPT that could be used in the treatment of patients suffering from different conditions and without the formation of AMPT crystalluria. This was accomplished with extensive research in animals, such as mice, rats, mongrel and beagle dogs, to which AMPT with a urine alkalinizer was administered. The alkalinization was obtained with Polycitra, administered orally, and in an amount to obtain a urine pH of about 7.8 to 8.

The test system of data set [2] is tobacco addiction (nicotine). Description: Treatment of smokers (nicotine dependence). The following applies: in vivo. On the set-up: species or system human.
Experimental: Furthermore, the present inventor utilized the combination of Haloperidol and AMPT by administering small doses of Haloperidol, 2 mg, (6 mgs total per day) for a healthy human, weighing 70 kg, simultaneously with the initiation of treatment with AMPT.
Generally, the administration of Haloperidol was discontinued after 7-10 days, while AMPT was administered for a period of at least three months in doses of 250 mg b.i.d.
Data set [3] has as its system rats exposed to cigarette extract and smoke. The data set is described as follows: Rats given cigarette extract water and cigarette smoke, choice test. The following applies: after 18 hours. The class given is in vivo. The text has this:
A cigarette extract was obtained by burning cigarettes and collecting the tar, nicotine, and other products of cigarette combustion by a perforated plastic tube tied to the exhaust of a miniature vacuum cleaner. The air and smoke was passed through a container of water in which the cigarette extract was deposited. This drinking water was subsequently given to the animals. In addition to bottle feeding rats with the cigarette extract water (equivalent to 6 cigarettes per rat per day), the rats were also exposed to cigarette smoke. The rats were exposed for 2 hours at 8 hour intervals, for a total of 6 hours a day, to cigarette smoke in a sealed chamber. After a period of 4 months, 24 animals died of different causes, pneumonia among them, and 66 survived. The remaining 66 animals were divided in two groups: 35 were treated with AMPT orally, and 31 were kept as controls. The urine was alkalinized in both groups with Polycitra to a pH of about 7.8.
At the end of 4 months, all rats were given the choice to continue drinking the same cigarette extract contaminated water or drink pure drinking water in equal amounts. All animals were given the choice to be in the cigarette smoke filled chamber or to use clean air quarters. […]

For data set [4], the system named is craving and abstinence symptoms. Description: Unintentional simple blind study with defective AMPT capsules. The class given is in vivo, human. The following applies: capsules containing less than half the intended amount of AMPT. The text has this: Moreover, it was confirmed that the effective agent in abolishing craving and abstinence symptoms in humans was the action of AMPT and none of the other agents given—Akineton or Polycitra—when in our first studies in humans, unknowingly we administered to patients capsules in which the amount of AMPT contained was less than half the amount of AMPT they should have had. The excessive amount of filler (calcium stearate) put in the capsulating machine in order to render the blended mixture more fluid and less compact, given the heavy consistency of the AMPT that was otherwise difficult for incorporation into capsules, was so excessive that it decreased the amount of AMPT in the capsules to less than half of what it should have been.
Once we knew the cause of the failure, we started to administer the proper dosage of AMPT. The patients then responded. […] The number of patients treated with different addictions, convinced us that the association of AMPT with Haloperidol produces very outstanding and beneficial results.

Another data set relates to addiction to heroin. The procedure:
(§1) Sixteen patients, randomly selected, addicted to heroin, cocaine, or cocaine and alcohol, were assigned to 3 different treatment groups, as follows:
(§2) a) A group of 6 patients, 3 of them addicted to heroin, and another 3 addicted to cocaine plus alcohol, were treated with AMPT alone.
(§3) b) Another group of 6 patients, 3 addicted to heroin and another 3 to cocaine plus alcohol, were treated with Haloperidol alone.
(§4) c) Another group of 4 patients, 2 addicted to heroin and another 2 addicted to cocaine and alcohol, were treated with placebo from the first day of admission.
(§5) The treatment protocol was as follows:
(§6) 2) All patients received the same proper amount of the alkalinizer Polycitra to produce a urinary pH around 7.8.
(§7) 4) All patients started treatment immediately after they arrived before they could develop any signs of withdrawal.
(§8) 5) Because of the difficulty to fulfill the above requirement of having consumed drugs on the same day of admission, all patients could not be treated simultaneously. This requirement was instated to maintain similarity with many other patients in our general program, where patients are started on treatment immediately after they arrive, even if they arrive immediately after consuming large amounts of the addicting drug(s).

Data set [5] concerns patients with dual disorder. Description: Length of hospitalization of treated patients (Table I). The following applies: human, in vivo.
A further data set has as its system heroin addiction. The data set is described as follows: Case reports, heroin addiction.
The subject of data set [6] is rats made dependent on alcohol. Description: Rats made dependent on alcohol (25% alcohol solution). The class given is in vivo. The following applies: AMPT 300 mg per kg of body weight. The procedure: Subsequently, it was observed that rats made dependent on alcohol (25% alcohol solution) would prefer again to drink plain water, instead of the alcohol solution upon which they had been made dependent, when treated with AMPT (300 mg per kg of body weight), with their preference being manifested after 2-4 days of treatment.

Data set [7] relates to addiction to cocaine plus alcohol. The data set is described as follows: 16 patient study, patients addicted to cocaine plus alcohol. The following applies: three patients. The class given is in vivo, human. As for the experimental part: as §1, §2, §3, §4, §5, §6, §7, §8
The subject of data set [8] is morphine addicted monkeys. The data set is described as follows: Craving and abstinence syndrome in narcotic-addicted monkeys. The class given is in vivo. The following applies: bar-presses; withdrawal symptoms, aggressive behavior. From the text: Equally the same, at present it is well known that all addictions have in common a biochemical factor—the alteration of the dopamine synthesis and its transporters.
Based on the above, we further hypothesized that the combination of both agents would render better results than any one of them alone.

The subject of data set [9] is homovanilic acid (HVA), a dopamine metabolite. Description: Urinary dopamine metabolites during Haloperidol administration. The class given is in vivo, human. The following applies: for dopamine metabolites (HVA) in urine: bipolar, manic and paranoid schizophrenic patients. The procedure: While studying human subjects, diagnosed with bipolar illness, the effects of administering Haloperidol on the metabolites of the neurotransmitter dopamine (DA) were analyzed.
The urinary studies were done for a period of 6 weeks in eight patients chosen for the study (three manic patients and five schizophrenics of the paranoid type).

The next data set concerns alcoholism. The data set is described as follows: Treatment of alcoholic patients. The class given is in vivo, human. The following applies: follow-up 2 to 3 years.

Regarding `CC(N)(Cc1ccc(O)cc1)C(=O)O` (stereo not drawn) [AMPT, alpha-methyl-para-tyrosine], the “safety (autopsy, macroscopic, microscopic, electron-microscopy)” value in [1] is “safety being confirmed by autopsy”. For the same compound, in data set [2], the “time until craving to smoke is lost” value is 2 to 4 days and 2 to 3 days. The choice of chamber result in data set [3] is on record as “totally avoiding the smoke filled compartment”. The “choice of drinking water” value in data set [3] (AMPT orally, discontinued two days in advance) is given as “chose to continue drinking the pure water”. The patient response result in data set [4] is on record as “failed to respond”. Also, the “day when patients had no craving or abstinence symptoms” value in the data set with addiction to heroin (three patients) is given as “sixth day”. Besides, in the data set on schizophrenia and mania (Haloperidol 10-15 mg t.i.d. when added), the “time to almost total cessation of the acute symptoms” value lay within 24 to 30 h. In addition, in the data set on schizophrenia and mania (case reports 8, 10, 11, follow-up 1-2 years), the “relapse of symptoms at follow-up on maintenance” value was “did not have any more phases of mania or depression”. Further, in data set [5], the “Average Length of Hospitalization” value worked out at 47 days, the “Longest Hospitalization” value stood at 97 days and the “Shortest Hospitalization” value was 26 days. Moreover, the “time to discharge from hospital” value in the data set on heroin addiction (case reports 1, 2, 16, 17, 18) was 65 days and 78 days. Further, the “craving and abstinence symptoms” value with heroin addiction (case reports 1, 2, 17, 18) is reported as “no abstinence symptoms appearing”. Also, in the data set with heroin addiction (follow-up 14 months to 1½ years), the “relapse to drugs at follow-up” value is recorded as “had not taken any drugs”. The “time until preference for plain water instead of alcohol solution” value in data set [6] was in the range of 2 to 4 days. Moreover, in [7], the “day when craving for cocaine started to remit” value is on record as “fifth day” and the “day when craving for cocaine was totally extinguished” value was “seventh”. In data set [8], the “craving and manifestations of the abstinence syndrome” value is “abolition of craving and withdrawal in all animals; also recorded: abolish the craving for morphine and the manifestations of the abstinence syndrome”.

Turning to `OC(CCN1CCCCC1)(c1ccccc1)C1CC2C=CC1C2` (stereo not shown) [Akineton], in [9], the “dopamine metabolites (HVA) in urine” value is recorded as “not related to the increase in dopamine metabolites”.

In the case of `O=C(CCCN1CCC(O)(c2ccc(Cl)cc2)CC1)c1ccc(F)cc1` [Haloperidol, 4-[4-(p-chlorophenyl)-4-hydroxy-piperidino]-4′-fluorobutyrophe], the “clinical symptoms after a month of treatment” value in data set [9] (Haloperidol exclusively, up to 60 mg a day, three paranoid and two manic patients) is “not totally controlled”. Further, the “dopamine metabolites (HVA) in urine” value in data set [9] was “increasing; also recorded: increased gradually and quantitatively in urine”. Further, the “time to maximum HVA concentration in urine” value in data set [9] (continued Haloperidol administration) is reported as 3-4 weeks. Also, the “overall conclusion on treatment of addiction” value in the data set with addiction to heroin (16 patient study, heroin and cocaine plus alcohol) was “useless”. Besides, in the data set on addiction to heroin (human, in vivo), the “severity of withdrawal symptoms compared with no treatment agent” value is “more severe”. Also, the “onset of severe manifestations of withdrawal” value with addiction to heroin (three patients) lay within 26 to 30 h. In data set [7] (up to sixth day), the craving for cocaine result is recorded as “did not subside”. Moreover, in [8], the “craving and manifestations of the abstinence syndrome” value is listed as “did not modify the craving”.

For `O=C1CC[C@@]2(O)[C@H]3Cc4ccc(O)c5c4[C@@]2(CCN3CC2CC2)[C@H]1O5` [Naltrexone], the “relapse into alcohol at follow-up” value in the data set on alcoholism is “none”.
